90 compounds from a melting point compilation (Tetko et al.; mined from patent text by program, amines drawn as free bases though some values may be those of a salt) can be followed below.

Where only a bound is given, the exact number is not on record here.

The melting point is the temperature, or range, at which the solid turns liquid.

On to `N#Cc1c(-c2ccc(OCc3ccccc3)cc2)cn(-c2cccc(OCCCl)c2)c1N`, for which the melting point lay in the range of 77 to 79 °C.
In turn, `CCCCCCCCC#Cc1ccc2sc(C=O)cc2c1` had a melting point of 45 to 47 °C.
For `COc1cc(Cl)cc2c1CCC2` the value was 38 to 40 °C; for `CC1C(=O)Oc2cc(N3CCCCC3)ccc21` (stereo not given), 78 to 80 °C.
As to `O=C1CCC(=O)N1c1nc(Nc2ccc(O)c(Cl)c2)cc(-c2ccccc2)n1`, the melting point was 274 to 276 °C.
For `Cc1ccc(Sc2cncc3sc(C=NOCC(=O)O)cc23)cc1` the value was 227 to 230 °C; for `Cc1nc(-c2ccccc2)c(NC(=O)Nc2ccccc2)s1`, 199 to 201 °C.
As to `COC(=O)c1sc(C(=O)OC)c(OC)c1C`, the melting point was 61 to 64 °C.
For `CC(C)Oc1ccnc2c1c(I)cn2S(=O)(=O)c1ccccc1` the value was 151 to 153 °C; for `CO/C=C1/C(=O)NC(=O)c2ccc(-n3cccc3)cc21`, 272 to 273 °C; for `CC(Oc1ccc(Cl)cc1)(C(=O)O)C(F)(F)F` (stereo not given), 141 to 142 °C.
For `Nc1ccc2c(c1)CCC1CC(=O)NN=C21` (stereo not given) the value was 290 to 291 °C.
`O=[N+]([O-])c1cc(O)ccc1/C=C/c1ccc(O)cc1` had a melting point of 237 to 240 °C.
Compound `CCc1c(OC)nc(OC)nc1C(=O)c1cc(Cl)cc(Cl)c1` showed a melting point of 118 to 119 °C.
For `COC(=O)c1cc(-c2ccncc2)ccc1C(=O)N1CCN(C(=O)OC(C)(C)C)CC1` the value was 144 to 146 °C.
`CN(C)c1ccc(C2(c3ccccc3)Oc3ccccc3-c3[nH]c4ccccc4c32)cc1` (stereo not given) gave a melting point of 229 °C.
As for `CON(c1ccc([N+](=O)[O-])cc1C#N)S(=O)(=O)c1ccc(Cl)c(C(F)(F)F)c1`, the melting point is 140 to 142 °C.
In the case of `CN(C)c1ccc2c(c1)CN1C(=Nc3cccnc3)SC[C@@H]1C2`, the melting point was determined as 138 °C.
For `CCC(=O)Nc1cc(NC(=O)CC)cc([N+](=O)[O-])c1` the value was 197 to 198 °C.
`Cc1nc(-c2cnc3[nH]cc(C(=O)N[C@@H](C(=O)N4CC(C#N)C4)C4CC4)c3n2)cn1-c1ccccc1`: the melting point fell in the range of 175 to 179 °C.
For `Cc1cc(C(O)CS(C)(=O)=O)cc(C)c1N(C)C` (stereo not given) the value was 133 to 134 °C; for `O=C(O)C(Oc1ccccc1)(C(F)(F)F)C(F)(F)F`, 6 to 8 °C; for `C#CCSc1nc(-c2ccccc2)no1`, 39.4 °C.
The compound `COC(=O)c1nn(C)nc1CO` returned a melting point of 112 to 113 °C.
`O=C(O)CCCCCCCNS(=O)(=O)c1ccc(Br)cc1` registered a melting point of 115 to 116 °C.
For `CCCc1ccc(S(=O)(=O)Nc2ccc3nc(C)cnc3c2)cc1` the value was 136 °C.
Take `Oc1ccc(Cl)cc1CCc1ccccn1`: the melting point lay in the range of 135 to 137 °C.
Turning to `Clc1cccc(OC2CCN(CCc3c[nH]c4ccccc34)CC2)c1`, the melting point fell in the range of 120 to 123 °C.
`COCOc1c(OC)cc(C=O)c2cccc(C)c12`: the melting point lay in the range of 48 to 50 °C.
Consider `O=C(O)c1ccc2ccc3ccc(C(=O)O)cc3c2c1`, for which the melting point is 390 °C.
For `CCc1cc(-c2ccc(Cl)cc2)nc2c(C(=O)Nc3cccc(S(C)(=O)=O)c3)cnn12` the value was 230 to 232 °C.
For `Cc1oc(-c2ccccc2)nc1COc1ccc2cc(CCCc3nnn[nH]3)oc2c1` the value was 139 to 140 °C; for `Cc1cc(Nc2ccccn2)c(S(C)(=O)=O)cc1C(=O)N=C(N)N`, 225 to 226 °C; for `COc1ccc(C2C(C(=O)/C=C/c3ccccc3)C(=O)CC(c3ccccc3)C2[N+](=O)[O-])cc1` (stereo not given), 108 to 110 °C.
For `COC(=O)NNc1n[nH]c2cc(Cl)ccc12` the value was 223 to 224 °C.
In turn, `O=C(NOc1ncc(C(F)(F)F)cc1Cl)c1cccc2ccccc12` showed a melting point of 198 to 199 °C.
Take `CCCCCCCCNC(=O)CSc1nc(Cl)cc(Nc2cccc(C)c2C)n1`: the melting point fell in the range of 144 to 146 °C.
`Cn1cc(-c2ccc3nnc(C(F)(F)c4ccc5nc(NC(=O)C6CC6)cn5n4)n3c2)cn1` registered a melting point of 275 °C.
Turning to `CCN(CC)S(=O)(=O)c1cc(Cl)c(Cl)c(Cl)c1SCSC#N`, the melting point is 83 to 85 °C.
The compound `OCC1CCn2c(nc3ccccc32)S1` (stereo not given) showed a melting point of 112 to 113 °C.
For `Cc1c(C=O)c2cc(Cl)ccc2n1-c1ccc(O)cc1` the value was over 240 °C; for `CS(=O)(=O)c1cc2c(cc1O)CCNCC2`, 241 to 242 °C; for `Cc1ccc(NC(=O)c2cccc(N3CCOCC3)c2)cc1N`, 192 to 193 °C.
For `NC(c1ccccc1)c1ccc(OCCCCOc2ccc(C(N)c3ccccc3)cc2)cc1` (stereo not given) the value was 120 to 123 °C; for `O=c1[nH]c2ccc(S(=O)CCN3CCC(Cc4ccc(F)cc4)CC3)cc2o1` (stereo not given), 202 to 204 °C.
For the compound `CNCC1Cc2cc(Cl)cc(-c3cccc(OC)c3OC)c2O1` (stereo not given), the melting point was 105 to 107 °C.
In the case of `COC1CCC2C3CCC4CC(OC(=O)C(C)C)CCC4(C)C3CCC12C` (stereo not given), the melting point fell in the range of 82 to 87 °C.
As to `CCCCOc1nn(-c2ccc(C(F)(F)F)cn2)cc1CCCOc1ccc(CCC(=O)O)c(OCC)c1`, the melting point fell in the range of 102 to 103 °C.
The compound `O=CC1c2ccccc2C(C=O)c2cc(Cl)ccc21` (stereo not given) gave a melting point of 113 to 115 °C.
As to `OC(CC1CCN(Cc2ccccc2)CC1)c1ccc(F)cc1` (stereo not given), the melting point was in the range of 84 to 86 °C.
As to `CCOC(=O)N1CCC(c2ccc(N3CC(COC)OC3=O)cc2)CC1` (racemic), the melting point is 86 to 88 °C.
For `CNC(=S)N1CCc2[nH]cnc2C1c1ccccc1` (stereo not given) the value was 228 °C.
For `CCOC(=O)C1Cc2ccc(N(C)C)cc2NC1=O` (stereo not given) the value was 181 to 182 °C; for `Cc1nc(NCCc2ccccc2)c2c(n1)N(c1ccccc1)C(=O)C2`, 81 to 84 °C.
Compound `CC(C=O)Oc1ccc(OCc2ccccc2)cc1` (stereo not given) showed a melting point of 50 to 51 °C.
With `Cn1nc(N=Cc2ccncc2)nc1NCCCOC1=CCC=C(CN2CCCC2)C1`, the melting point was in the range of 166 to 167 °C.
Compound `CC(=O)OC1CCC2(C)C(CCC3=C4C(=O)CC(C(C)CCCN(C)C)C4(C)CCC32)C1` (stereo not given) had a melting point of 122 to 124 °C.
In turn, `CNC1=NS(=O)(=O)N=C1NCCSCc1csc(N(C)C)n1` showed a melting point of 227 to 229 °C.
Compound `COc1ccc(Cc2sccc2OC2OC(COC(C)=O)C(OC(C)=O)C(OC(C)=O)C2OC(C)=O)cc1` (stereo not given) gave a melting point of 116 to 118 °C.
Take `Cc1ccc(S(=O)(=O)N2CCc3ccccc3C(Oc3ccc(C(F)(F)F)cc3)C2)cc1` (stereo not given): the melting point was in the range of 114 to 115 °C.
For `CNCCc1ccc2[nH]cc(S(=O)(=O)c3ccccc3)c2c1` the value was 151 to 154 °C; for `CN(c1ccccc1-c1ccc2cnc(Nc3ccc(N4CCN(CC(N)=O)CC4)c(F)c3)nn12)S(C)(=O)=O`, 148 °C.
For `Nc1ncc(-c2cccc(Nc3ccc(-c4ccco4)cc3[N+](=O)[O-])c2)cn1` the value was 178 to 180 °C.
For `Cc1oc(-c2ccc(C(F)(F)F)cc2)nc1-c1cccc(-c2ccc(O)cc2)c1`, the melting point is 133 to 135 °C.
On to `COc1ccc(NN=C(Sc2ccc(C#N)cc2)C(C)=O)cc1`, for which the melting point is 182 to 184 °C.
The compound `COc1ccc2c(c1)C(=O)C(Oc1cccnc1)CO2` (stereo not given) gave a melting point of 116 to 117 °C.
Take `COc1cccc(C(=C/C=C/C(=O)NCCCCCCc2cccnc2)c2cccc(OC)c2)c1`: the melting point lay within 66 to 70 °C.
For `Cc1ccccc1OCC(O)CN(CCOc1ncccc1C(N)=O)Cc1ccccc1` (stereo not given) the value was 109 to 112 °C.
Compound `O=C(c1ccc(-c2cc(Cl)ccc2OCc2ccccc2)cc1C(F)(F)F)N1CCCC1` gave a melting point of 143 to 144 °C.
`CC(=O)OC1(C(C)=O)C(C)CC2C3CCC4=CC(=O)C=CC4(C)C3=CCC21C` (stereo not given) returned a melting point of 230 to 233 °C.
Turning to `CCCOc1ccc(F)cc1C(=O)C=CN(C)C`, the melting point was 43 to 46 °C.
For `O=C(COc1ccccc1)NC1C(=O)N(C(O)(Cc2ccccc2)C(=O)O)C1CI` (stereo not given) the value was 159 to 160 °C; for `CC(C)(C)CC(C)(CO)C(=O)O` (stereo not given), 96.5 to 100 °C; for `NC(=N[N+](=O)[O-])NCCC[C@@H](NC(=O)C(c1ccccc1)c1ccccc1)C(=O)NCc1ccc(COC(=O)Oc2ccccc2)cc1`, 186 to 187 °C.
The compound `CC(=O)OCC(N)C(=O)Nn1cccc1` (stereo not given) came in with a melting point of 147 to 148 °C.
As to `O=c1c(-c2cc(=O)c3c(O)cccc3o2)cn(-c2ccccc2)c2ccccc12`, the melting point is over 300 °C.
`CCCCOc1ccc(S(C)(=O)=O)cc1C(=O)Nc1c(C(N)=O)nn(CCN2CCOCC2)c1CC` yielded a melting point of 182 to 185 °C.
`O=Cc1c(Br)n(C2OC(CO)C(O)C2O)c2cc(Cl)c(Cl)cc12` (stereo not given) showed a melting point of 210 to 211 °C.
For `CC(C(=O)O)c1ccc2oc(N)nc2c1` (stereo not given) the value was 225 to 229 °C; for `OC(CCc1ccccc1)c1c[nH]cn1` (stereo not given), 144 to 146 °C; for `CN(C(=O)c1cc2ccccc2c(-c2ccccc2Cl)n1)C1CCCCC1`, 131 °C.
For `CCC(CC)c1ccc(Cl)c2nc3n(c12)CCCCN3c1cnc(N2CCCC2)cc1C` the value was 160 to 161 °C; for `CC(C)S(=O)(=O)NCC(C)(F)c1ccc(-c2ccc(CC#N)cc2)cc1` (stereo not given), 155 to 157 °C; for `O=C(NC(C(=O)O)C1CC(Cl)=NO1)OCC1c2ccccc2-c2ccccc21` (stereo not given), 175 to 176 °C.
As to `Cc1ccc(-c2ccc3c(c2)C=C(C(=O)O)CC(C)O3)cc1` (stereo not given), the melting point lay in the range of 224 to 225 °C.
Consider `CC1(C)CC(S(=O)C(F)c2c(F)cccc2F)=NO1` (stereo not given), for which the melting point worked out at 87 °C.
`Clc1ccc(CC2(c3ccccc3)OCC(CN3CCCCC3)O2)cc1` (stereo not given) yielded a melting point of 58 °C.
For `O=C(c1cc(C(F)(F)F)cc(C(F)(F)F)c1)N1CCC(Nc2nc3cccnc3n2Cc2ccco2)CC1Cc1ccccc1` (stereo not given) the value was 109 °C; for `O=C1CCC(N2Cc3cc(CNC(=O)c4ccccc4)ccc3C2=O)C(=O)N1` (stereo not given), 266 to 268 °C; for `OCc1ccc(-c2cccc(C(F)(F)F)c2)o1`, 45 °C.
